Test results as given in patent publication US12221432B2, “Estrogen receptor antagonist” (CHIA TAI TIANQING PHARMACEUTICAL GROUP CO., LTD., priority 2018, dated 2025).

Columns and labels:
[1] = tested on: uterine growth; test: Uterine wet weight inhibition in immature rats; assay type: in vivo, female immature rats; conditions: oral, three consecutive days
Experimental: This study was intended to evaluate the uterine growth inhibition of compounds of the present application in female immature rats aged 18-21 days (provided by Beijing Vital River Laboratory Animal Technology Co., Ltd., with the number of test animals in each experimental group being 5). In this study, 18-day-old female immature rats were given oral doses of 10 mg/kg of the compound of the present application and 0.1 mg/kg of estradiol for three consecutive days, the control group was given oral doses of 0.1 mg/kg of estradiol for three consecutive days, and the blank group was given no drugs except the corresponding vehicle. Three days after the administration, the rats were sacrificed, and the uteruses of the rats were weighed to observe the effect of the test compound on the uterine growth inhibition in rats. Inhibition rate=100*[(VehicleEE−Cpd)/(VehicleEE−Vehicle)], wherein VehicleEE is uterine wet weight in the control group (oral doses of 0.1 mg/kg estradiol); Cpd is the uterine wet weight of the treatment group; Vehicle is the uterine wet weight of rats in the blank group.

[2] = tested on: MCF-7 cells; test: MCF-7 cell proliferation inhibition; assay type: cell-based; conditions: 6 days incubation, CellTiter-Glo; read-out: IC50 for MCF-7 cell proliferation inhibition
Experimental: EMEM medium was purchased from Wisent, and fetal bovine serum was purchased from Biosera. Promega CellTiter-Glo reagent. MCF-7 cells were purchased from the Cell Bank of Type Culture Collection Committee of the Chinese Academy of Sciences. Nivo5 multi-marker analyzer (PerkinElmer).
MCF-7 cells were seeded in a white 384-well plate at 600 cells/[…] suspension/well. The plate was incubated in a CO2 incubator overnight.
On the day of treatment, a day 0 plate coated under the same conditions the day before was taken, centrifuged to remove the medium, added with 25 microliters of Promega CellTiter-Glo reagent to each well, and incubated at room temperature for 10 minutes to stabilize the luminescence signal. Measures were read by PerkinElmer Nivo multi-marker analyzer as an initial value for 0% inhibition.
The test compounds were serially 5-fold diluted to the 10th concentration with a multichannel pipette, i.e., from 2 millimoles to […], and the experiments were set up in duplicate. 47.5 microliters of medium was added to the intermediate plate, 2.5 microliters of serially diluted compounds were transferred to corresponding wells of the intermediate plate, and after mixing, 5 microliters of the mixture per well was transferred to the cell plate. The plate was incubated in a CO2 incubator for 6 days.
After 6 days of co-incubation with the compounds, the plate was centrifuged to remove the medium, added with 25 microliters of Promega CellTiter-Glo reagent to each well, and incubated at room temperature for 10 minutes to stabilize the luminescence signal. Measures were read by PerkinElmer Nivo multi-marker analyzer.
The original data was converted into inhibition rate by the formula: % inhibition=((RFUCmpd−AVER(RFUNeg.Ctrl))/((AVER(RFUDay0)−AVER(RFUNeg.Ctrl))×100%. Curve fitting was conducted and IC50 was calculated.

[3] = cited from earlier work
[4] = tested on: breast cancer; conditions: intramuscular injection, breast cancer patients; cited from earlier work

C[C@]12CC[C@@H]3c4ccc(O)cc4CC[C@H]3[C@@H]1CC[C@@H]2O [Estradiol, estradiol, reference compound]
Uterine wet weight ([1]; estradiol alone (control group)): 0.1200 g

CC/C(=C(/c1ccc(OCCNC/C=C/C(=O)N(C)C)nc1)c1[nH]c2ccccc2c1Cl)c1ccc(F)cc1Cl [Compound 1]
IC50 [2]: 1.41 nM
Inhibition rate ([1]; 10 mg/kg + estradiol 0.1 mg/kg): 75%
Uterine wet weight ([1]; 10 mg/kg + estradiol 0.1 mg/kg): 0.0672 g

C[C@]12CC[C@@H]3c4ccc(O)cc4C[C@@H](CCCCCCCCC[S+]([O-])CCCC(F)(F)C(F)(F)F)[C@H]3[C@@H]1CC[C@@H]2O (stereo partly drawn) [fulvestrant]
bioavailability via oral administration [3]: zero
clinical response rate [4]: about 50%
